This note sets out measurements from US7642364B2, “Benzopyrone compounds, preparation method and use thereof” (Shenyang Research Institute of Chemical Industry, priority 2003, dated 2010).

The subject of one test is wheat powdery mildew. Put plainly: Fungicidal activity on potted plants, wheat powdery mildew. In kind it is in vivo. As to conditions: 200 ppm.
A further test has as its system cucumber downy mildew. The experiment in a line: Fungicidal activity on potted plants, cucumber downy mildew. In kind it is in vivo. As to conditions: for control(%) fungicidal activity against cucumber downy mildew: 50 ppm; for control against cucumber downy mildew: 200 ppm, spray on potted plant.
For a further test, the system named is grape downy mildew. Put plainly: Fungicidal activity on potted plants, grape downy mildew. In kind it is in vivo. As to conditions: 200 ppm.
In a further test the test system is tomato late blight. It is filed as in vivo. The conditions noted are these: 200 ppm.
The next test relates to Mexican lady beetle. The experiment in a line: Insecticidal/acaricidal activity, Mexican lady beetle. It is filed as in vivo. The conditions noted are these: 300 ppm. The protocol:
Numerous insect larvae were put into containers then were fed with treated corn leaves. Potter's spraying tower was used as the sprayer and spraying volume was 1 mL. The spraying pressure was 13.5 lb/in^2.

In a further test the test system is culex mosquitoes. Put plainly: Insecticidal/acaricidal activity, culex mosquitoes. In kind it is in vivo. The conditions noted are these: 10 ppm.
Test [1] relates to tomato early stage blight. Put plainly: Fungicidal activity on potted plants, tomato early stage blight. It is filed as in vivo. As to conditions: 200 ppm.
Another test deals with cucumber grey mold. Put plainly: Fungicidal activity on potted plants, cucumber grey mold. In kind it is in vivo. As to conditions: 200 ppm.
A further test deals with two-spotted spider mite. Put plainly: Insecticidal/acaricidal activity, two-spotted spider mite. In kind it is in vivo. As to conditions: 300 ppm.
For the next test, the system named is wheat leaf rust. The experiment in a line: Fungicidal activity on potted plants, wheat leaf rust. As to conditions: 200 ppm. It is filed as in vivo.
The subject of the next test is wheat leaf blotch. The experiment in a line: Fungicidal activity on potted plants, wheat leaf blotch. It is filed as in vivo. As to conditions: 200 ppm.
Test [2] in a line: Biological evaluation of compound JP51 after synthesis. As to conditions: after synthesis and the biological evaluation. The text has this:
Biological active data of the compound in JP04-182461 have not been disclosed.

Bounds are passed on as bounds.

In the case of `CCCc1c(C)c2ccc(OCc3ccccc3C(=NOC)C(=O)OC)cc2oc1=O` [Compound 412], the “control against wheat powdery mildew” value in the test on wheat powdery mildew is given as 100%.

As for `CON=C(C(=O)OC)c1ccccc1COc1cc2oc(=O)cc(-c3cccc(C(F)(F)F)c3)c2cc1C(C)=O` [Compound 141], in the test on cucumber downy mildew, the “control(%) fungicidal activity against cucumber downy mildew” value (from here on “control(%) fungicidal activity”) came to 100%.

Consider `COC=C(C(=O)OC)c1ccccc1COc1cc2oc(=O)cc(C)c2cc1C(C)=O` [Compound 10], for which the “control against grape downy mildew” value with grape downy mildew is 100%. For the same molecule, the “control against tomato late blight” value with tomato late blight is more than 75%. The “control of Mexican lady beetle” value in the test with Mexican lady beetle is given as 100%.

For `COC=C(C(=O)OC)c1ccccc1COc1ccc2c(C)c(Cc3ccccc3)c(=O)oc2c1C` [Compound 69], the “control against cucumber downy mildew” value with cucumber downy mildew worked out at 100%.

`COC=C(C(=O)OC)c1ccccc1COc1ccc2c(C)c(C)c(=O)oc2c1` [Compound 5]: in the test with cucumber downy mildew, the “control(%) fungicidal activity” value is listed as 100% and the “control against cucumber downy mildew” value came out at 100%. Further, the “control of culex mosquitoes” value in the test with culex mosquitoes is reported as 100%.

`CCCCCCc1c(C)c2ccc(OCc3ccccc3C(=COC)C(=O)OC)cc2oc1=O` [Compound 405]: in the test with cucumber downy mildew, the “control(%) fungicidal activity” value turned out to be 100% and the “control against cucumber downy mildew” value amounted to 100%.

As to `COC=C(C(=O)OC)c1ccccc1COc1ccc2c(C)cc(=O)oc2c1C(C)=O` [Compound 11], in [1], the “control against tomato early stage blight” value is given as more than 75%.

Turning to `CCCc1cc(=O)oc2cc(OCc3ccccc3C(=COC)C(=O)OC)ccc12` [Compound 34], the “control against cucumber downy mildew” value in the test on cucumber downy mildew came out at 100%.

In the case of `COC=C(C(=O)OC)c1ccccc1COc1ccc2c(COC)cc(=O)oc2c1` [Compound 19], in the test on cucumber downy mildew, the “control against cucumber downy mildew” value amounted to 100%.

For the molecule `COC=C(C(=O)OC)c1ccccc1COc1ccc2c(C)c(Cl)c(=O)oc2c1` [Compound 12], in the test on cucumber downy mildew, the “control(%) fungicidal activity” value came out at 100% and the “control against cucumber downy mildew” value was found to be 100%.

As for `CCCc1c(CCC)c2ccc(OCc3ccccc3C(=COC)C(=O)OC)cc2oc1=O` [Compound 409], in the test on cucumber downy mildew, the “control(%) fungicidal activity” value is 100% and the “control against cucumber downy mildew” value was determined as 100%.

Turning to `COC=C(C(=O)OC)c1ccccc1COc1ccc2c(-c3ccc(OC)c(OC)c3)cc(=O)oc2c1` [Compound 58], the “control against cucumber downy mildew” value in the test with cucumber downy mildew is 100%. Further, in the test with cucumber grey mold, the “control against cucumber grey mold” value came out at 100%.

With `COC=C(C(=O)OC)c1ccccc1COc1ccc2ccc(=O)oc2c1` [Compound 1], in the test with cucumber downy mildew, the “control(%) fungicidal activity” value was 100% and the “control against cucumber downy mildew” value was found to be 100%.

For `COC=C(C(=O)OC)c1ccccc1COc1ccc2c(C(F)(F)F)cc(=O)oc2c1` [Compound 7], in the test on grape downy mildew, the “control against grape downy mildew” value stood at 100%. In addition, the “control of two-spotted spider mite” value with two-spotted spider mite is on record as more than 50%. Besides, the “control of Mexican lady beetle” value in the test on Mexican lady beetle is 100%.

Consider `COC=C(C(=O)OC)c1ccccc1COc1cc2oc(=O)cc(C)c2cc1C(C)=NOC` [Compound 9], for which, in the test with Mexican lady beetle, the “control of Mexican lady beetle” value was determined as 100%.

Consider `CCc1c(C)c2ccc(OCc3ccccc3C(=COC)C(=O)OC)cc2oc1=O` [Compound 18], for which the “control against cucumber downy mildew” value in the test with cucumber downy mildew worked out at 100%. Moreover, the “control against cucumber grey mold” value in the test with cucumber grey mold is 100%.

Take `COC=C(C(=O)OC)c1ccccc1COc1ccc2c(C)c(C)c(=O)oc2c1C` [Compound 6]: the “control against grape downy mildew” value with grape downy mildew is recorded as 100%. In the test on tomato late blight, the “control against tomato late blight” value was more than 95%. In the test on cucumber downy mildew, the “control(%) fungicidal activity” value is given as 100% and the “control against cucumber downy mildew” value is 100%. Besides, in the test on cucumber grey mold, the “control against cucumber grey mold” value is 100%. The “control of culex mosquitoes” value with culex mosquitoes was found to be 100%. Besides, the “control against wheat leaf rust” value in the test with wheat leaf rust was determined as 100%. The “control against wheat leaf blotch” value in the test with wheat leaf blotch is more than 90%.

As to `CCCc1cc(=O)oc2c(C)c(OCc3ccccc3C(=COC)C(=O)OC)ccc12` [Compound 35], the “control against cucumber downy mildew” value in the test with cucumber downy mildew was determined as 100%.

Regarding `CON=C(C(=O)OC)c1ccccc1COc1ccc2c(C)c(Cl)c(=O)oc2c1` [Compound 100], the “control against cucumber grey mold” value in the test with cucumber grey mold was 100%.

Take `CCCCc1c(C)c2ccc(OCc3ccccc3C(=NOC)C(=O)OC)cc2oc1=O` [Compound 413]: in the test on cucumber downy mildew, the “control against cucumber downy mildew” value came to 100%. Moreover, the “control against wheat powdery mildew” value in the test on wheat powdery mildew came out at 100%.

`COC=C(C(=O)OC)c1ccccc1COc1ccc2c(-c3ccccc3)cc(=O)oc2c1` [Compound 52]: in the test on cucumber downy mildew, the “control(%) fungicidal activity” value stood at 100% and the “control against cucumber downy mildew” value came out at 100%.

Take `CCCc1c(Cl)c(=O)oc2cc(OCc3ccccc3C(=NOC)C(=O)OC)ccc12` [Compound 410]: the “control against cucumber downy mildew” value in the test with cucumber downy mildew amounted to 100%.

Regarding `COC=C(C(=O)OC)c1ccccc1COc1ccc2c(-c3ccccc3)cc(=O)oc2c1C` [Compound 4], the “control against cucumber downy mildew” value in the test on cucumber downy mildew is 100%.

`CCCCc1c(C)c2ccc(OCc3ccccc3C(=COC)C(=O)OC)cc2oc1=O` [Compound 402]: in the test on cucumber downy mildew, the “control(%) fungicidal activity” value is reported as 100% and the “control against cucumber downy mildew” value is reported as 100%. The “control against cucumber grey mold” value with cucumber grey mold is 100%. Moreover, in the test on wheat powdery mildew, the “control against wheat powdery mildew” value stood at 100%.

Regarding `CNC(=O)/C(=N/OC)c1ccccc1COc1ccc2ccc(=O)oc2c1` [JP51, reference compound], the “biological activity (general statement)” value in [2] is reported as “low biological active”. Further, in the test with cucumber downy mildew, the “control(%) fungicidal activity” value was found to be 20%.

As to `CON=C(C(=O)OC)c1ccccc1COc1ccc2c(C)c(Cl)c(=O)oc2c1C` [Compound 109], in the test on cucumber downy mildew, the “control against cucumber downy mildew” value was determined as 100%.

On to `CCCc1c(C)c(=O)oc2cc(OCc3ccccc3C(=COC)C(=O)OC)ccc12` [Compound 37], for which, in the test on cucumber downy mildew, the “control(%) fungicidal activity” value was determined as 100% and the “control against cucumber downy mildew” value stood at 100%.

For the molecule `COC=C(C(=O)OC)c1ccccc1COc1ccc2c(C)cc(=O)oc2c1` [Compound 2], in the test with cucumber downy mildew, the “control(%) fungicidal activity” value turned out to be 100% and the “control against cucumber downy mildew” value came out at 100%. Besides, in the test with cucumber grey mold, the “control against cucumber grey mold” value turned out to be 100%. In addition, the “control of culex mosquitoes” value with culex mosquitoes was found to be 100%.

Turning to `CCCCCCc1c(C)c2ccc(OCc3ccccc3C(=NOC)C(=O)OC)cc2oc1=O` [Compound 414], the “control against cucumber downy mildew” value with cucumber downy mildew came to 100%.

For `CCc1cc(=O)oc2cc(OCc3ccccc3C(=COC)C(=O)OC)ccc12` [Compound 33], the “control against cucumber downy mildew” value with cucumber downy mildew is 100%.

For the molecule `COC=C(C(=O)OC)c1ccccc1COc1ccc2c(C)c(Cl)c(=O)oc2c1C` [Compound 25], the “control against cucumber downy mildew” value in the test with cucumber downy mildew is listed as 100%.

With `COC=C(C(=O)OC)c1ccccc1COc1ccc2c(C(C)C)cc(=O)oc2c1` [Compound 26], in the test on cucumber downy mildew, the “control(%) fungicidal activity” value came to 100% and the “control against cucumber downy mildew” value is on record as 100%.

Turning to `COC=C(C(=O)OC)c1ccccc1COc1ccc2c(C)c(F)c(=O)oc2c1` [Compound 50], in the test on cucumber downy mildew, the “control against cucumber downy mildew” value came out at 100%. Further, the “control against cucumber grey mold” value with cucumber grey mold came out at 100%.
